Assay [1] concerns the target PIM (PIM-1, PIM-2, and/or PIM-3). The assay is described as follows: PIM-1, PIM-2 and PIM-3 inhibition, biochemical chemiluminescence assays (Kinase Glo, IC50 determination). Conditions: Table 1 activity class; PIM refers to PIM-1, PIM-2, and/or PIM-3; read-out: PIM IC50 (Activity B). In general terms: In Kinase-Glo more light means more ATP remaining.
Assay [2] has as its target CK2 (Homo sapiens, UniProt P68400). The assay is described as follows: CK2 inhibition, biochemical chemiluminescence holoenzyme assay (Kinase Glo, IC50 determination). The settings on record: Table 1 activity class; symbol given only if active; read-out: CK2 IC50 (Activity C). The method, then:
Characterization of CK2 Inhibition in a Biochemical Chemiluminesence Assay (IC50 Determination):
The IC50 evaluation of compounds against CK2 was performed in a Chemiluminesence Holoenzyme assay utilizing a Greiner 384-well white medium binding white plate format. […] The assay procedure involves the compound dilution scheme followed by addition of 10 μL of the substrate twice, followed by 10 μL twice of the respective enzyme or buffer to the designated well plates and subsequent pre-incubation of the compounds. Following an incubation period of 150 minutes at ambient temperature (24-27° C.), 10 μL of Kinase Glo (Promega) was added. The luminescence was measured following a Luminescence Protocol on a Victor plate reader.

pIC50: −log10 of the molar value. Where only a bound is given, the exact number is not on record here.

Sequence of CK2 (P68400 whole entry): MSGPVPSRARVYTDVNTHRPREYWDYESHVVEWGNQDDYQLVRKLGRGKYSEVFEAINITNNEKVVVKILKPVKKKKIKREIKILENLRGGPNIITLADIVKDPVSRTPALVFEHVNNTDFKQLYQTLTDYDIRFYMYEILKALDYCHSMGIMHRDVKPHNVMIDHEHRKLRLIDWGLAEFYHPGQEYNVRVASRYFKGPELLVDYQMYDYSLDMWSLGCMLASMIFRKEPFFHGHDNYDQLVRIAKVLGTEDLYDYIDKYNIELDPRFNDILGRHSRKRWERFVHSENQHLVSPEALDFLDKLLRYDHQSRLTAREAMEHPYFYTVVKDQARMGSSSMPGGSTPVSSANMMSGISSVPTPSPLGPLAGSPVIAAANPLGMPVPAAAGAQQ
Sequence of CK2 (P67870 whole entry partner): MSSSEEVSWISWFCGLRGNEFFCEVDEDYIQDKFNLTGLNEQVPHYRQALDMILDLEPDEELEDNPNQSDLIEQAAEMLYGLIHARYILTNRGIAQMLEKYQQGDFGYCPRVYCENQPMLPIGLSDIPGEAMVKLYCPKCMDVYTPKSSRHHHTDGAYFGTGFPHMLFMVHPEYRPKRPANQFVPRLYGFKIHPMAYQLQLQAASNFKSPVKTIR

`CCc1ccccc1-c1nc2c(oc3ccc(Br)cc32)c(=O)[nH]1` [Compound 77, 8-bromo-2-(2-ethylphenyl)[1]benzofuro[3,2-d]pyrimidin-4(3H)-one]: the pIC50 in assay [1] and in assay [2] was over 5.00 in each case.
Regarding `COc1ccc(Br)c(-c2nc3c(oc4ccc(Br)cc43)c(=O)[nH]2)c1` [Compound 78, 8-bromo-2-[2-bromo-5-(methyloxy)phenyl][1]benzofuro[3,2-d]pyrimidin-4(3H)-one], the pIC50 in assay [1] and in assay [2] was over 5.00 in each case.
`COc1ccc(-c2nc3c(oc4ccc(Br)cc43)c(=O)[nH]2)c(Cl)c1` [Compound 79, 8-bromo-2-[2-chloro-4-(methyloxy)phenyl][1]benzofuro[3,2-d]pyrimidin-4(3H)-one]: the pIC50 in assay [1] and in assay [2] was over 5.00 throughout.
As for `CC(=O)Nc1ccc(-c2nc3c(oc4ccc(Br)cc43)c(=O)[nH]2)cc1` [Compound 80, N-[4-(8-bromo-4-oxo-3,4-dihydro[1]benzofuro[3,2-d]pyrimidin-2-yl)phenyl]acetamide], the pIC50 in assay [1] and in assay [2] was over 5.00 throughout.
For `O=c1[nH]c(-c2ncc[nH]2)nc2c1oc1ccc(Br)cc12` [Compound 85, 8-bromo-2-(1H-imidazol-2-yl)[1]benzofuro[3,2-d]pyrimidin-4(3H)-one], the negative logarithm of the IC50 (pIC50) in assay [1] and in assay [2] was over 5.00 throughout.
With `CSc1ccccc1-c1nc2c(oc3ccc(Br)cc32)c(=O)[nH]1` [Compound 88, 8-bromo-2-[2-(methylthio)phenyl][1]benzofuro[3,2-d]pyrimidin-4(3H)-one], the pIC50 in assay [1] and in assay [2] was over 5.00 each time.
On to `O=C(NC1CCCCC1)c1cccc(-c2nc3c(oc4ccc(Br)cc43)c(=O)[nH]2)c1` [Compound 92, 3-(8-bromo-4-oxo-3,4-dihydro[1]benzofuro[3,2-d]pyrimidin-2-yl)-N-cyclohexylbenzamide], for which the pIC50 in assay [1] and in assay [2] was over 5.00 each time.
Regarding `O=c1[nH]c(-c2cccc(Cl)c2)nc2c1oc1ccc(Br)cc12` [Compound 93, 8-Bromo-2-(3-chlorophenyl)[1]benzofuro[3,2-d]pyrimidin-4(3H)-one], the negative-log IC50 (pIC50) in assay [1] and in assay [2] was over 5.00 each time.
For the compound `O=c1[nH]c(-c2ccccc2Cl)nc2c1oc1ccc3ccccc3c12` [Compound 96, 10-(2-Chlorophenyl)naphtho[1′,2′:4,5]furo[3,2-d]pyrimidin-8(9H)-one], the pIC50 in assay [1] and in assay [2] was over 5.00 in each case.
`O=C(NCc1ccccc1)c1cccc(-c2nc3c(oc4ccc(Br)cc43)c(=O)[nH]2)c1` [Compound 99, 3-(8-bromo-4-oxo-3,4-dihydro[1]benzofuro[3,2-d]pyrimidin-2-yl)-N-(phenylmethyl)benzamide]: the negative logarithm of the IC50 (pIC50) in assay [1] and in assay [2] was over 5.00 in each case.
As to `CC(C)CNC(=O)c1cccc(-c2nc3c(oc4ccc(Br)cc43)c(=O)[nH]2)c1` [Compound 101, 3-(8-bromo-4-oxo-3,4-dihydro[1]benzofuro[3,2-d]pyrimidin-2-yl)-N-(2-methylpropyl)benzamide], the pIC50 in assay [1] and in assay [2] was over 5.00 each time.
Turning to `CN1CCN(c2ccc(COCc3nc4c(oc5ccc(Br)cc54)c(=O)[nH]3)cc2)CC1` [Compound 102, 8-bromo-2-[({[4-(4-methylpiperazin-1-yl)phenyl]methyl}oxy)methyl][1]benzofuro[3,2-d]pyrimidin-4(3H)-one], the pIC50 in assay [1] and in assay [2] was over 5.00 throughout.
Take `CN(C)c1ccc(CNCc2nc3c(oc4ccc(Br)cc43)c(=O)[nH]2)cc1` [Compound 104, 8-bromo-2-[({[4-(dimethylamino)phenyl]methyl}amino)methyl][1]benzofuro[3,2-d]pyrimidin-4(3H)-one]: the pIC50 in assay [1] and in assay [2] was over 5.00 each time.
Turning to `O=c1[nH]c(CCN2CCCC2)nc2c1oc1ccc(Br)cc12` [Compound 105], the pIC50 in assay [1] and in assay [2] was over 5.00 in each case.
Regarding `O=c1[nH]c(CC2CCNCC2)nc2c1oc1ccc(Br)cc12` [Compound 122, 8-bromo-2-(piperidin-4-ylmethyl)[1]benzofuro[3,2-d]pyrimidin-4(3H)-one], the negative-log IC50 (pIC50) in assay [1] and in assay [2] was over 5.00 in each case.
Consider `CN(C)CCCCNc1ccc(-c2nc3c(oc4ccc(Br)cc43)c(=O)[nH]2)c(Cl)c1` [Compound 136, 8-bromo-2-(2-chloro-4-{[4-(dimethylamino)butyl]amino}phenyl)[1]benzofuro[3,2-d]pyrimidin-4(3H)-one], for which the pIC50 in assay [1] and in assay [2] was over 5.00 in each case.
For `O=c1[nH]c(-c2ccc(NCc3c[nH]cn3)cc2Cl)nc2c1oc1ccc(Br)cc12` [Compound 139, 8-bromo-2-{2-chloro-4-[(1H-imidazol-4-ylmethyl)amino]phenyl}[1]benzofuro[3,2-d]pyrimidin-4(3H)-one], the negative logarithm of the IC50 (pIC50) in assay [1] and in assay [2] was over 5.00 each time.
Consider `COc1ccc2oc3c(=O)[nH]c(-c4cc([N+](=O)[O-])ccc4Cl)nc3c2c1` [Compound 145, 2-(2-chloro-5-nitrophenyl)-8-(methyloxy)[1]benzofuro[3,2-d]pyrimidin-4(3H)-one], for which the negative logarithm of the IC50 (pIC50) in assay [1] and in assay [2] was over 5.00 throughout.
Regarding `COC(=O)c1ccc(-c2nc3c(oc4ccc(Br)cc43)c(=O)[nH]2)c(Cl)c1` [Compound 146, methyl 4-(8-bromo-4-oxo-3,4-dihydro[1]benzofuro[3,2-d]pyrimidin-2-yl)-3-chlorobenzoate], the pIC50 in assay [1] and in assay [2] was over 5.00 each time.
On to `CCc1nccn1Cc1nc2c(oc3ccc(Br)cc32)c(=O)[nH]1` [Compound 149, 8-bromo-2-[(2-ethyl-1H-imidazol-1-yl)methyl][1]benzofuro[3,2-d]pyrimidin-4(3H)-one], for which the negative-log IC50 (pIC50) in assay [1] and in assay [2] was over 5.00 each time.
For `CCN1CCN(Cc2nc3c(oc4ccc(Br)cc43)c(=O)[nH]2)CC1` [Compound 150, 8-bromo-2-[(4-ethylpiperazin-1-yl)methyl][1]benzofuro[3,2-d]pyrimidin-4(3H)-one], the negative-log IC50 (pIC50) in assay [1] and in assay [2] was over 5.00 in each case.
For `COCCN1CCN(Cc2nc3c(oc4ccc(Br)cc43)c(=O)[nH]2)CC1` [Compound 151, 8-bromo-2-({4-[2-(methyloxy)ethyl]piperazin-1-yl}methyl)[1]benzofuro[3,2-d]pyrimidin-4(3H)-one], the pIC50 in assay [1] and in assay [2] was over 5.00 throughout.
Consider `COc1ccc2oc3c(=O)[nH]c(-c4ccncc4Cl)nc3c2c1` [Compound 152, 2-(3-chloropyridin-4-yl)-8-(methyloxy)[1]benzofuro[3,2-d]pyrimidin-4(3H)-one], for which the pIC50 in assay [1] and in assay [2] was over 5.00 in each case.
In the case of `O=C(CCc1c[nH]cn1)Nc1ccc(-c2nc3c(oc4ccc(Br)cc43)c(=O)[nH]2)c(Cl)c1` [Compound 162, N-[4-(8-bromo-4-oxo-3,4-dihydro[1]benzofuro[3,2-d]pyrimidin-2-yl)-3-chlorophenyl]-3-(1H-imidazol-4-yl)propanamide], the pIC50 in assay [1] and in assay [2] was over 5.00 each time.
As for `CN1CCC(CNc2ccc(-c3nc4c(oc5ccc(Br)cc54)c(=O)[nH]3)c(Cl)c2)CC1` [Compound 163, 8-bromo-2-(2-chloro-4-{[(1-methylpiperidin-4-yl)methyl]amino}phenyl)[1]benzofuro[3,2-d]pyrimidin-4(3H)-one], the negative logarithm of the IC50 (pIC50) in assay [1] and in assay [2] was over 5.00 in each case.

The values above are taken from patent US20090247559A1 (Exelixis, Inc., priority 2007, published 2009).
